Data taken from patent US12479840B2, “HMG-CoA reductase degradation inducing compound” (Uppthera, priority 2020, dated 2025).

These compounds were tested against T1, HMG-CoA reductase (Homo sapiens, UniProt P04035) (assay: HMG-CoA reductase (HMGCR) degradation in HepG2 cells by western blotting). Details: treated for 18 hours, ratio of HMG-CoA reductase to GAPDH.
T1 construct: endogenous in cells; host or cells: HepG2 (Korea Cell Line Bank)
T1 sequence (P04035 1-888): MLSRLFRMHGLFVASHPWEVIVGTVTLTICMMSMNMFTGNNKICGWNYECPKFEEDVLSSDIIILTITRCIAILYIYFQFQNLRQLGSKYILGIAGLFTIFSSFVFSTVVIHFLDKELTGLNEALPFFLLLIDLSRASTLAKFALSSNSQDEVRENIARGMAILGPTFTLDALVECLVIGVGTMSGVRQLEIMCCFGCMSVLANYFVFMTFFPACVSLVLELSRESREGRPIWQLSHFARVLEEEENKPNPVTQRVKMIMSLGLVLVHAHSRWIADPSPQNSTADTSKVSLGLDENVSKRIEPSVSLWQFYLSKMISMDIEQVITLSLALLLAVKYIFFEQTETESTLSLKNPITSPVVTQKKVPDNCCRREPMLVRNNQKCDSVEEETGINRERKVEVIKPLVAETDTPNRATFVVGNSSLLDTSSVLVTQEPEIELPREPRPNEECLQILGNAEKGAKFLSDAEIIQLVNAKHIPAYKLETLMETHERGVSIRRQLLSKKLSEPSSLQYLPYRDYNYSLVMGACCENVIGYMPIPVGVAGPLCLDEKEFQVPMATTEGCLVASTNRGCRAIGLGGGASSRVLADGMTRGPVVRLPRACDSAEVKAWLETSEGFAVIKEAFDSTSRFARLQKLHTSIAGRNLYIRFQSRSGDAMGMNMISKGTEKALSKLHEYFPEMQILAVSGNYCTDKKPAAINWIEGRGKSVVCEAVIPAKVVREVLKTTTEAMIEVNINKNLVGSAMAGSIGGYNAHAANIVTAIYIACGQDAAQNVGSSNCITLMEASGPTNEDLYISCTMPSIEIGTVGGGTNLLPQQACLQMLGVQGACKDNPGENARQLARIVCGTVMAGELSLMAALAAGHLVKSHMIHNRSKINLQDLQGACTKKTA
Type: cell-based
Summary of the method: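 HepG2 cells (passage P105–P110) treated 18 hours with compounds in 10-point three-fold dilutions from 3 μM. RIPA lysates (15 μg protein, BCA-quantified) run on SDS-PAGE and immunoblotted for HMGCR (1:500) with GAPDH (1:20000) as loading control, primary antibodies 16 hours at 4° C.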

For Cc1ncsc1-c1ccc(CNC(=O)[C@@H]2C[C@@H](O)CN2C(=O)[C@@H](NC(=O)C2(F)CC2)C(C)(C)C)c(OCCOCCOCCOCCOCCNC(=O)O[C@H]2C[C@@H](C)C=C3C=C[C@H](C)[C@H](CC[C@@H]4C[C@@H](O[Si](C)(C)C(C)(C)C)CC(=O)O4)[C@H]32)c1 [Compound 30, (1S,3R,7S,8S,8aR)-8-(2-((2R,4R)-4-((tert-butyldimethylsilyl)oxy)-6-oxotetrahydro-2H-pyran-2-yl)ethyl)-3,7-dimethyl-1,2,3,7,8,8a-hexahydronaphthalen-1-yl (14-(2-(((2S,4R)-1-((S)-2-(1-fluorocyclopropane-1-carboxamido)-3,3-dimethylbutanoyl)-4-hydroxypyrrolidine-2-carboxamido)methyl)-5-(4-methylthiazol-5-yl)phenoxy)-3,6,9,12-tetraoxatetradecyl)carbamate], the DC50 was 50 to 500 nM.

Same assay, conditions: treated for 18 hours, ratio of HMG-CoA reductase to GAPDH, read-out: DC50

C[C@H]1C=C2C=C[C@H](C)[C@H](CC[C@@H]3C[C@@H](O)CC(=O)O3)[C@H]2[C@@H](OC(=O)C(C)(C)CCC(=O)NCCOCCOCCOCCOCCOCCNc2cccc3c2C(=O)N(C2CCC(=O)NC2=O)C3=O)C1 (stereo partly drawn) [Compound 5, (1S,3R,7S,8S,8aR)-8-(2-((2R,4R)-4-hydroxy-6-oxotetrahydro-2H-pyran-2-yl)ethyl)-3,7-dimethyl-1,2,3,7,8,8a-hexahydronaphthalen-1-yl 1-((2-(2,6-dioxopiperidin-3-yl)-1,3-dioxoisoindolin-4-yl)amino)-22,22-dimethyl-19-oxo-3,6,9,12,15-pentaoxa-18-azatricosan-23-oate] and C[C@H]1C=C2C=C[C@H](C)[C@H](CC[C@@H]3C[C@@H](O)CC(=O)O3)[C@H]2[C@@H](OC(=O)NCCOCCOCCOCCNc2cccc3c2C(=O)N(C2CCC(=O)NC2=O)C3=O)C1 (stereo partly drawn) [Compound 41, (1S,3R,7S,8S,8aR)-8-(2-((2R,4R)-4-hydroxy-6-oxotetrahydro-2H-pyran-2-yl)ethyl)-3,7-dimethyl-1,2,3,7,8,8a-hexahydronaphthalen-1-yl (2-(2-(2-(2-((2-(2,6-dioxopiperidin-3-yl)-1,3-dioxoisoindolin-4-yl)amino)ethoxy)ethoxy)ethoxy)ethyl)carbamate] cannot be ordered by DC50: less than 50 nM for the first, less than 50 nM for the second.

C[C@H]1C=C2C=C[C@H](C)[C@H](CC[C@@H]3C[C@@H](O[Si](C)(C)C(C)(C)C)CC(=O)O3)[C@H]2[C@@H](OC(=O)NCCCOCCCOCCCNc2cccc3c2C(=O)N(C2CCC(=O)NC2=O)C3=O)C1 (stereo partly drawn) [Compound 94, (1S,3R,7S,8S,8aR)-8-(2-((2R,4R)-4-((tert-butyldimethylsilyl)oxy)-6-oxotetrahydro-2H-pyran-2-yl)ethyl)-3,7-dimethyl-1,2,3,7,8,8a-hexahydronaphthalen-1-yl (3-(3-(3-((2-(2,6-dioxopiperidin-3-yl)-1,3-dioxoisoindolin-4-yl)amino)propoxy)propoxy)propyl)carbamate] and C[C@H]1C=C2C=C[C@H](C)[C@H](CC[C@@H]3C[C@@H](O[Si](C)(C)C(C)(C)C)CC(=O)O3)[C@H]2[C@@H](OC(=O)NCCOCCOCCOCCOCCNc2cccc3c2C(=O)N(C2CCC(=O)NC2=O)C3=O)C1 (stereo partly drawn) [Compound 48, (1S,3R,7S,8S,8aR)-8-(2-((2R,4R)-4-((tert-butyldimethylsilyl)oxy)-6-oxotetrahydro-2H-pyran-2-yl)ethyl)-3,7-dimethyl-1,2,3,7,8,8a-hexahydronaphthalen-1-yl (14-((2-(2,6-dioxopiperidin-3-yl)-1,3-dioxoisoindolin-4-yl)amino)-3,6,9,12-tetraoxatetradecyl)carbamate] cannot be ordered by DC50: less than 50 nM for the first, less than 50 nM for the second.

Cc1ncsc1-c1ccc(CNC(=O)[C@@H]2C[C@@H](O)CN2C(=O)[C@@H](NC(=O)C2(F)CC2)C(C)(C)C)c(OCCc2cn(CCCNC(=O)O[C@@H]3C[C@H](C)C=C4C=C[C@@H](C)[C@@H](CC[C@@H]5C[C@@H](O)CC(=O)O5)[C@@H]43)nn2)c1 [Compound 169, (1R,3S,7R,8R,8aS)-8-(2-((2R,4R)-4-hydroxy-6-oxotetrahydro-2H-pyran-2-yl)ethyl)-3,7-dimethyl-1,2,3,7,8,8a-hexahydronaphthalen-1-yl (3-(4-(2-(2-(((2S,4R)-1-((S)-2-(1-fluorocyclopropane-1-carboxamido)-3,3-dimethylbutanoyl)-4-hydroxypyrrolidine-2-carboxamido)methyl)-5-(4-methylthiazol-5-yl)phenoxy)ethyl)-1H-1,2,3-triazol-1-yl)propyl)carbamate] and Cc1ncsc1-c1ccc(CNC(=O)[C@@H]2C[C@@H](O)CN2C(=O)[C@@H](NC(=O)COCCOCCOCCNC(=O)O[C@H]2C[C@@H](C)C=C3C=C[C@H](C)[C@H](CC[C@@H]4C[C@@H](O)CC(=O)O4)[C@H]32)C(C)(C)C)cc1 [Compound 16, (1S,3R,7S,8S,8aR)-8-(2-((2R,4R)-4-hydroxy-6-oxotetrahydro-2H-pyran-2-yl)ethyl)-3,7-dimethyl-1,2,3,7,8,8a-hexahydronaphthalen-1-yl ((S)-13-((2S,4R)-4-hydroxy-2-((4-(4-methylthiazol-5-yl)benzyl)carbamoyl)pyrrolidine-1-carbonyl)-14,14-dimethyl-11-oxo-3,6,9-trioxa-12-azapentadecyl)carbamate] cannot be ordered by DC50: less than 50 nM for the first, less than 50 nM for the second.

First: Cc1ncsc1-c1ccc(CNC(=O)[C@@H]2C[C@@H](O)CN2C(=O)[C@@H](NC(=O)COCCOCCOCCOCCOCCNC(=O)O[C@H]2C[C@@H](C)C=C3C=C[C@H](C)[C@H](CC[C@@H]4C[C@@H](O[Si](C)(C)C(C)(C)C)CC(=O)O4)[C@H]32)C(C)(C)C)cc1 [Compound 22, (1S,3R,7S,8S,8aR)-8-(2-((2R,4R)-4-((tert-butyldimethylsilyl)oxy)-6-oxotetrahydro-2H-pyran-2-yl)ethyl)-3,7-dimethyl-1,2,3,7,8,8a-hexahydronaphthalen-1-yl ((S)-19-((2S,4R)-4-hydroxy-2-((4-(4-methylthiazol-5-yl)benzyl)carbamoyl)pyrrolidine-1-carbonyl)-20,20-dimethyl-17-oxo-3,6,9,12,15-pentaoxa-18-azahenicosyl)carbamate]
Second: Cc1ncsc1-c1ccc(CNC(=O)[C@@H]2C[C@@H](O)CN2C(=O)[C@@H](NC(=O)CCCCCCCCCCNC(=O)O[C@H]2C[C@@H](C)C=C3C=C[C@H](C)[C@H](CC[C@@H](O)C[C@@H](O)CC(=O)O)[C@H]32)C(C)(C)C)cc1 [Compound 154, (3R,5R)-3,5-dihydroxy-7-((1S,2S,6R,8S,8aR)-8-(((11-(((S)-1-((2S,4R)-4-hydroxy-2-((4-(4-methylthiazol-5-yl)benzyl)carbamoyl)pyrrolidin-1-yl)-3,3-dimethyl-1-oxobutan-2-yl)amino)-11-oxoundecyl)carbamoyl)oxy)-2,6-dimethyl-1,2,6,7,8,8a-hexahydronaphthalen-1-yl)heptanoic acid]
The DC50 of the first is lower: less than 50 nM for the first, greater than 500 nM for the second.

C[C@H]1C=C2C=C[C@H](C)[C@H](CC[C@@H]3C[C@@H](O)CC(=O)O3)[C@H]2[C@@H](OC(=O)NCCCCCCCCCCCNc2cccc3c2C(=O)N(C2CCC(=O)NC2=O)C3=O)C1 (stereo partly drawn) [Compound 64, (1S,3R,7S,8S,8aR)-8-(2-((2R,4R)-4-hydroxy-6-oxotetrahydro-2H-pyran-2-yl)ethyl)-3,7-dimethyl-1,2,3,7,8,8a-hexahydronaphthalen-1-yl (11-((2-(2,6-dioxopiperidin-3-yl)-1,3-dioxoisoindolin-4-yl)amino)undecyl)carbamate] and C[C@H]1C=C2C=C[C@H](C)[C@H](CC[C@@H]3C[C@@H](O[Si](C)(C)C(C)(C)C)CC(=O)O3)[C@H]2[C@@H](OC(=O)NCCCCCCCCCCCNc2cccc3c2C(=O)N(C2CCC(=O)NC2=O)C3=O)C1 (stereo partly drawn) [Compound 57, (1S,3R,7S,8S,8aR)-8-(2-((2R,4R)-4-((tert-butyldimethylsilyl)oxy)-6-oxotetrahydro-2H-pyran-2-yl)ethyl)-3,7-dimethyl-1,2,3,7,8,8a-hexahydronaphthalen-1-yl (11-((2-(2,6-dioxopiperidin-3-yl)-1,3-dioxoisoindolin-4-yl)amino)undecyl)carbamate] cannot be ordered by DC50: less than 50 nM for the first, less than 50 nM for the second.

C[C@H]1C=C2C=C[C@H](C)[C@H](CC[C@@H]3C[C@@H](O)CC(=O)O3)[C@H]2[C@@H](OC(=O)C(C)(C)CCC(=O)NCCOCCOCCOCCNc2ccccc2)C1 [Compound 1, (1S,3R,7S,8S,8aR)-8-(2-((2R,4R)-4-hydroxy-6-oxotetrahydro-2H-pyran-2-yl)ethyl)-3,7-dimethyl-1,2,3,7,8,8a-hexahydronaphthalen-1-yl 16,16-dimethyl-13-oxo-1-(phenylamino)-3,6,9-trioxa-12-azaheptadecan-17-oate] showed a DC50 greater than 500 nM.
